Blank lines part the entries; values can stand above or below the compound they belong to. The source made the active and inactive calls.
Columns and labels:
[1] = target: T1, Heat shock factor protein 1 (Mus musculus, UniProt P38532); experiment: decrease of HSF1-responsive luciferase luminescence – cell-based, NIH3T3, dose retest, confirmation (AID 2382); type: functional;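 also: NIH3T3 fibroblasts with HSF1-driven luciferase reporter stressed by proteasome inhibitor MG132; luminescence from HSF1-driven luciferase expression after 8 hours of MG132 stress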
T1 sequence (P38532 whole entry): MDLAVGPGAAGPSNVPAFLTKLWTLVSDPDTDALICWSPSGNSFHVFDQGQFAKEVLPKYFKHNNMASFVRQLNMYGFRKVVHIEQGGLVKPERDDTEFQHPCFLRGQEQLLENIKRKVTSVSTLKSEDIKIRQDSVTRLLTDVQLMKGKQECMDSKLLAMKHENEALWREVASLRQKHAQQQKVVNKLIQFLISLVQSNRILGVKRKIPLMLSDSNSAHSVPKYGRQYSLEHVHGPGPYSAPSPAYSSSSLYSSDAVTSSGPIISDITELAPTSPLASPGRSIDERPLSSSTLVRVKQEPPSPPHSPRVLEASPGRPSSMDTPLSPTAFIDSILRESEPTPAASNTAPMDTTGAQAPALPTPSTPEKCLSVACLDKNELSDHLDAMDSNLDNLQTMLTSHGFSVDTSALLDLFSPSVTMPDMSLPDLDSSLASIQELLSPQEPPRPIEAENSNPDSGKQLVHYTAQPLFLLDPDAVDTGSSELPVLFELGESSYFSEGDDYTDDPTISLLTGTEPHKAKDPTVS

[2] = target: T2, Corticotropin-releasing factor receptor 2/Corticotropin-releasing factor-binding protein (Homo sapiens, UniProt P24387+Q13324); experiment: activators of CRF receptor 2 with binding protein – uHTS hits, confirmation (AID 602473); type: functional; details: read-out: EC50_Mean
T2 sequence (Q13324 whole entry): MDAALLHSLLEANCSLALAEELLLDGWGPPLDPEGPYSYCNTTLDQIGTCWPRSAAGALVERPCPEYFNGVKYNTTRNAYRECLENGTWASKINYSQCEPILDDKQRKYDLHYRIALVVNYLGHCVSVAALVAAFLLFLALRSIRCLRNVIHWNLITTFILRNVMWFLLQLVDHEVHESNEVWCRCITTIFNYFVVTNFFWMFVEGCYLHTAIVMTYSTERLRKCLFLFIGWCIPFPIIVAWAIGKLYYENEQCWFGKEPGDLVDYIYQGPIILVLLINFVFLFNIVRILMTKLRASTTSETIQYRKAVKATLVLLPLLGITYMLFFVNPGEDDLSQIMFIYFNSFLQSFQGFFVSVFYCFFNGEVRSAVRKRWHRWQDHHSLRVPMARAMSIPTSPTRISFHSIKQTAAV
T2 sequence (P24387 whole entry): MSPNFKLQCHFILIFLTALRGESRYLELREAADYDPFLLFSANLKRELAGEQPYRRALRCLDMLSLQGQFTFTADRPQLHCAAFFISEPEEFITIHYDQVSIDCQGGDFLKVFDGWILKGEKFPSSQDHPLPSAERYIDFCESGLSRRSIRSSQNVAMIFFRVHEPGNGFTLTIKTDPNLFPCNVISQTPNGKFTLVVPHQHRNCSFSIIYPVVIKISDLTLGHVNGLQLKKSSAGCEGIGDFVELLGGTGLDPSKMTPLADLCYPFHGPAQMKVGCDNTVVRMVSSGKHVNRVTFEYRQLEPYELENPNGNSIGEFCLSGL

[3] = target: T3, Cytochrome P450 1A2 (Homo sapiens, UniProt P05177);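 also: PubChem cytochrome P450 panel assay, CYP1A2 panel member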
T3 sequence (P05177 whole entry): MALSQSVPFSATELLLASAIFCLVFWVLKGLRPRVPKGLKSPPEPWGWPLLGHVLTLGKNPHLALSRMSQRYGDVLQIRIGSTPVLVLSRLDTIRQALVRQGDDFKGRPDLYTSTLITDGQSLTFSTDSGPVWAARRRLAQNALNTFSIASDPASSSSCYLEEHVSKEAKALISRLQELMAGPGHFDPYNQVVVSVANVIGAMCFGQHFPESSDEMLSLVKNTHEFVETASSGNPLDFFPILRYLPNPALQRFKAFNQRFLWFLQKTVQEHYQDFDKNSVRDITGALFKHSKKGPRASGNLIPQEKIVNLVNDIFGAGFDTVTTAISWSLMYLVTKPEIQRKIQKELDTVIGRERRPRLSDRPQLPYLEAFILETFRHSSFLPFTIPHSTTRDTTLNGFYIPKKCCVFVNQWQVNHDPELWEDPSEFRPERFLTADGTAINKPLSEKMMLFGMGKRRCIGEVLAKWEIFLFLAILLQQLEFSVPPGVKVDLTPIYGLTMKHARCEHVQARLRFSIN

[4] = target: Cytochrome P450 3A4 (Homo sapiens, UniProt P08684);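 also: CYP3A4 tested as one member of a cytochrome P450 panel screen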
Chain of Cytochrome P450 3A4 (P08684 whole entry): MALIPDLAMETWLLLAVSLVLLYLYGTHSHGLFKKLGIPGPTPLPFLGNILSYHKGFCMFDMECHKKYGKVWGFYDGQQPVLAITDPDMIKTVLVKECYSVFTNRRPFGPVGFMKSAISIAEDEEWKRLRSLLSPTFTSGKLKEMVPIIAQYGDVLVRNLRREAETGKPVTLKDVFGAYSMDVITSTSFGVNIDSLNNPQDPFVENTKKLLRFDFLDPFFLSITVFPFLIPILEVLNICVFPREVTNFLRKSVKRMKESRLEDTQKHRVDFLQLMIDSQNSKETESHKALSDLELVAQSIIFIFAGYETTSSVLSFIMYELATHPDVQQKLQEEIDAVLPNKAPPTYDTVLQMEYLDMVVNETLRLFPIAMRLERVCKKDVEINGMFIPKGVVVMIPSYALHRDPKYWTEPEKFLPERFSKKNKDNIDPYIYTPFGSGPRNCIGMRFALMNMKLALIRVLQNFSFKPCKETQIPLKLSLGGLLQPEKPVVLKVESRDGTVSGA

[5] = target: Cytochrome P450 2C9 (Homo sapiens, UniProt P11712)
Chain of Cytochrome P450 2C9 (P11712 whole entry): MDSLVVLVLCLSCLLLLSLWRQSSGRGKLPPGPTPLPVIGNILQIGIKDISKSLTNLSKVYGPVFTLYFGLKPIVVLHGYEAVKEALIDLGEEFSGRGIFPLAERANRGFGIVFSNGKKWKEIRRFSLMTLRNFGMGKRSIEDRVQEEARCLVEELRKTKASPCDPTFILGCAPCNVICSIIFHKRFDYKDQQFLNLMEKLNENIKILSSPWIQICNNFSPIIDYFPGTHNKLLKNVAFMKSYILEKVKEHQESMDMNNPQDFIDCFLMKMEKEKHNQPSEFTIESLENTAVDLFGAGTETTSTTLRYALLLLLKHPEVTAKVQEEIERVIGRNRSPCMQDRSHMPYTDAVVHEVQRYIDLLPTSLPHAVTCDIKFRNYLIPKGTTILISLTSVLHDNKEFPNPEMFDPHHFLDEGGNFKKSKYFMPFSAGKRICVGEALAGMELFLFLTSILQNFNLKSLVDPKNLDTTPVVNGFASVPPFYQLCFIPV

[6] = tested on: Streptococcus sp. 'group A'; experiment: Streptococcus pyogenes SK(-)GAS viability under kanamycin – luminescence, BacTiterGlo, confirmation, counter-screen for streptokinase expression inhibitor project, dose response (AID 1900); type: functional, organism-based
[7] = tested on: Streptococcus; experiment: GAS UMAA2166 growth inhibition – luminescence, BacTiterGlo, counter-screen for streptokinase expression inhibitor project, dose response (AID 1915); type: functional, organism-based;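 also: potency for reduction of bacterial viability or growth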
[8] = target: Cytochrome P450 2C19 (Homo sapiens, UniProt P33261); experiment: Cytochrome panel assay with activity outcomes. Panel member name: p450-cyp2c19 Compounds with AC50 equal or less than 10 uM are considered active; type: functional; details: read-out: AC50
Chain of Cytochrome P450 2C19 (P33261 whole entry): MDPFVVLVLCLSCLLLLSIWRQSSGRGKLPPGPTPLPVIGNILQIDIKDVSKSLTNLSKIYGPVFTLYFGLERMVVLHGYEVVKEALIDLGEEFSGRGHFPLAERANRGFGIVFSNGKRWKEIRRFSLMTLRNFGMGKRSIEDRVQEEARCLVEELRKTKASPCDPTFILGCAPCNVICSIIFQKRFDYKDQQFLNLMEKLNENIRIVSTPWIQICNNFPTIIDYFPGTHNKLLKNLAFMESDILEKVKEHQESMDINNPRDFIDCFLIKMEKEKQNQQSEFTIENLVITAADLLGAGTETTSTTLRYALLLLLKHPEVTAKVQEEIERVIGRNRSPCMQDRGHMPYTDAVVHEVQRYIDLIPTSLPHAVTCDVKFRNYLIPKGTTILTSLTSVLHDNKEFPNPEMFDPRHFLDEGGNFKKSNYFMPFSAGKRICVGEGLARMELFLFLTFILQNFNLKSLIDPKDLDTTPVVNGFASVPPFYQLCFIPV

[9] = luciferase reporter signal suppression in cells – H4 neuroglioma cells, luminescence, dose response (AID 1990); type: functional, cell-based
[10] = viability of uninfected HEp-2 cells – cell-based, HTS, cytotoxicity control for RSV inhibitor project, dose response (AID 2410); type: functional; details: human respiratory syncytial virus

Compound: CCCCCCc1cc2cc(C(=O)NCc3ccccc3)c(=N)oc2cc1O
EC50 [2]: 4.2 µM (active)

Compound: N[C@H](C(=O)O)[C@H](O)C(=O)O
AC50 [3]: 39.8 µM (inconclusive)
AC50 [4]: 0.0316 µM (inconclusive)

Compound: COc1ccccc1C(=O)NNC(=O)C(=O)Nc1ccc(C)c(Cl)c1
EC50 [6]: 1.73 µM (active)
EC50 [7]: 3.87 µM (active)

Compound: CC1CC(C)CN(C/C=C/c2ccccc2[N+](=O)[O-])C1 (stereo not drawn)
AC50 [3]: 14.1 µM (inconclusive)
AC50 [5]: 1.58 µM (inconclusive)
AC50 [4]: 25.1 µM (inconclusive)

Compound: O=C(Nc1nnc(C2=COCCO2)o1)c1ccc(Br)cc1
EC50 [6]: 1.9 µM (active)
EC50 [7]: 5.47 µM (active)

Compound: CCC1CCCCN1Cc1ccc(OC)c(C)c1 (stereo not drawn)
EC50 [2]: 14 µM (active)

Compound: N#CN(CC(N)=O)c1nc(N2CCCCC2)nc(N2CCCCC2)n1
AC50 [5]: 10 µM (inconclusive)
AC50 [8]: 22.4 µM (inconclusive)

Compound: C=C(C)Cn1c(NCCC)nc2c1c(=O)n(C)c(=O)n2C
EC50 [1]: > 195 µM (not active)

Compound: N#Cc1c(-c2ccc3c(c2)OCO3)csc1N
EC50 [1]: > 195 µM (not active)

Compound: CC(C)OCCCNC(=O)C1CC(=O)N(C2CCCCCCC2)C1 (stereo not drawn)
AC50 [8]: 17.8 µM (inconclusive)
AC50 [4]: 25.1 µM (inconclusive)

Compound: Cc1ccc(C(=O)N/N=C/c2cn(Cc3ccccc3)c3ccccc23)cn1
EC50 [9]: 7.88 µM (active)

Compound: COc1cc2c(cc1OC)CN(C(=O)CCCOc1ccc(Cl)cc1Cl)CC2
CC50 [10]: 24.7 µM (active)

Compound: Clc1ccc2c(c1)N(CCCN1CCCC13CCCCC3)c1ccccc1S2
AC50 [8]: 5.01 µM (inconclusive)

The next lines start with the values.

EC50 [1]: > 195 µM (not active)
Compound: Cc1cc([N+](=O)[O-])ccc1NC(=O)CCC(=O)N1CCCCC1

EC50 [1]: > 195 µM (not active)
Compound: CCSc1nnc(NC(=O)C(Cc2ccccc2)n2cccc2)s1 (stereo not drawn)

AC50 [3]: 14.1 µM (inconclusive)
AC50 [4]: 0.708 µM (inconclusive)
Compound: CCc1nnc2sc(-c3ccc(NC(=O)c4ccco4)cc3)nn12

EC50 [1]: > 195 µM (not active)
Compound: CN(c1ccccc1)S(=O)(=O)c1nnc(NC(=O)COc2ccccc2F)s1

AC50 [5]: 7.94 µM (inconclusive)
AC50 [4]: 28.2 µM (inconclusive)
Compound: CC(=O)c1cccc(NC(=O)CSCc2ccccc2)c1

EC50 [2]: > 53 µM (inactive)
Compound: O=C(OCC(=O)N1N=C(c2ccc(Cl)cc2)CC1c1ccco1)c1ccco1 (stereo not drawn)

EC50 [1]: > 195 µM (not active)
Compound: Cc1noc(C)c1CSCC(=O)Nc1ccc(S(=O)(=O)C(F)F)cc1

EC50 [2]: > 53 µM (inactive)
Compound: CCCn1c(SCC(=O)N2CC(=O)Nc3ccccc32)nc2ccccc21

EC50 [1]: > 195 µM (not active)
Compound: CCN(CC)c1nc2c(c(=O)[nH]c(=O)n2C)n1CCOc1ccccc1

AC50 [3]: 10 µM (inconclusive)
AC50 [5]: 12.6 µM (inconclusive)
AC50 [4]: 22.4 µM (inconclusive)
Compound: Cc1nnc(C)n1/N=C/c1ccc(-c2ccccc2)cc1

AC50 [4]: 2.24 µM (inconclusive)
Compound: N#C/C(=C\c1cc([N+](=O)[O-])c(N2CCCCC2)cc1N1CCCCC1)c1nn(-c2ccccc2)c(N)c1C#N

AC50 [8]: 10 µM (inconclusive)
AC50 [4]: 6.31 µM (inconclusive)
Compound: COC(=O)N1CCC2(CCCN(C(=O)Nc3cccc(C#N)c3)C2)CC1

EC50 [1]: > 195 µM (not active)
Compound: C=CCn1c(SCC(=O)NCCc2ccccc2)nnc1C(C)NC(=O)c1cccs1 (stereo not drawn)

Source: ChEMBL document CHEMBL1201862, “PubChem BioAssay data set” (2004)
